Measured values taken from patent US20140017204A1, “Transfection of Mesothelium Body Cavity Lining with Gene Agents Followed by Chemotharapy to Treat Cancer of Organs in the Body Cavity” (WKD Holding Oy, priority 2012, published 2014).

How the values were obtained:
[1] = tested on: malignant pleural mesothelioma; settings: in vivo; cited from earlier work
SKOV-3m cells = assay: intraperitoneal ovarian cancer xenograft model in mice; format: in vivo, Balb/cA-nu female nude mice; settings: for mean survival: control group 15±1 days
Procedure: Gene therapy was also combined with chemotherapy. Therapy was initiated when sizable tumors were confirmed in magnetic resonance imaging (MRI). Adenovirus-mediated gene transfer was performed intravenously (2×10^9 pfu), while chemotherapy and monoclonal anti-VEGF-antibody were dosed intraperitoneally. […] Effectiveness was assessed by survival time and surrogate measures such as sequential MRI, immunohistochemistry, microvessel density and tumor growth.
Cells were cultured in McCoy's 5A medium (Gibco, Invitrogen, Life Technologies). Cancer cells were tested to be mycoplasma free. Before in vivo inoculation, the cells were trypsinized and counted.
Chemotherapy and anti-VEGF-antibody: Carboplatin 10 mg/ml infusion concentrate was used at a dose of 80 mg/kg for the primary treatment of Balb/cA-nu mice. The dose per Balb/cA-nu was 1.6 mg/500 μl NaCl 0.9%. Paclitaxel 6 mg/ml concentrate was used at a dose of 20 mg/kg. The dose per nude mouse was 320 μg/500 μl NaCl 0.9%. […] It was injected every fifth day.
Viral vectors: Adenoviral vectors encoding sVEGFR-1-IgG fusion protein, sVEGFR-2-IgG fusion protein, sVEGFR-3-IgG fusion protein and LacZ (AdLacZ) as a control vector were used for the study.
Animal model: Eight to 10-weeks-old (n ¼ 80) Balb/cA-nu female nude mice were used for the studies. Ovarian carcinoma was produced by inoculating 1×10^7 SKOV-3m cells into the peritoneal cavity of nude mice with a 22 G needle. Development of the ovarian cancerous tumors was followed by sequential MRI. When the first solid, measurable tumor was detected in MRI, gene transfer or other treatment was started on the following day. Mice were randomly divided into six groups:
Tumors developed within 3 weeks after the inoculation of the tumor cells. The presence of all tumors was verified by MRI (magnetic resonance imaging) before starting the therapy. Tumors were observed weekly until the death of the mice. Plasma samples were collected 6, 13, 20 and 27 days after the treatment. Gene transfer was performed intravenously (i.v.) via tail vein in the final volume of 200 ll in 0.9% saline.
MRI was done weekly after gene transfer or treatment, and tumor volumes were measured. The overall follow-up time lasted until the appearance of significant symptoms necessitating sacrifice or to the death. At the time of death, all tumor tissue, liver, spleen, kidneys and lungs were harvested, and tumor masses were weighed. Ascites fluid was collected in a syringe. The mice were kept in a pathogen-free isolated unit at the National Experimental Animal Center of the University of Eastern Finland. Food, water and sawdust bedding were autoclaved, and the mice received chow and water ad libitum.
Photographs of histological sections were taken and processed using an Olympus AX70 microscope (Olympus Optical, Japan) and analySIS (Soft Imaging System, GmbH, Germany) and PhotoShop (Adobe) softwares. Microvessel density (MVD) and total microvascular area (%) of the tumors (TVA) were measured from CD34-immunostained sections using analySIS software at 100× magnification in a blinded manner (FIG. 36). Six to 10 different fields, which represented maximum MVD areas, were selected from each tumor. Necrotic areas were avoided. In addition, the total number of LYVE-1-positive lymphatic vessels per section was counted. Mean 6 SEM of the measurements are reported. […]

murine tumor = murine tumor volume: gemcitabine and interferon beta gene therapy vector (FIG. 21); format: in vivo; settings: after 40 days; placebo about 1400
Source text: FIG. 21 is a chart comparing murine tumor volume of control; gemcitabine (administered day=0); interferon beta gene therapy vector (administered day=0); and interferon beta gene therapy vector (day=0) followed by gemcitabine (day=3).

N.N.[Cl][Pt][Cl] [cisplatin]
median survival time [1]: 9 months

bevacizumab
effect on angiogenesis by micro-vessel measurements (SKOV-3m cells; mouse, in vivo): did not have any effect
effect on survival, tumor volume or mean tumor weight (SKOV-3m cells; mouse, in vivo): did not have any significant effect
effect on the survival (SKOV-3m cells; mouse, in vivo): did not have any significant effect

Nc1ccn([C@@H]2O[C@H](CO)[C@@H](O)C2(F)F)c(=O)n1 [gemcitabine]
average tumor size (murine tumor): 1200 mm^3

N.N.O=C([O-])C1(C(=O)[O-])CCC1.[Pt+2] [carboplatin]
mean survival (SKOV-3m cells): 13 ± 1 days

CC(=O)O[C@H]1C(=O)[C@@]2(C)[C@H]([C@H](OC(=O)c3ccccc3)[C@]3(O)C[C@H](OC(=O)[C@H](O)[C@@H](NC(=O)c4ccccc4)c4ccccc4)C(C)=C1C3(C)C)[C@]1(OC(C)=O)CO[C@@H]1C[C@@H]2O [paclitaxel]
mean survival (SKOV-3m cells): 15 ± 1 days
